Measured values taken from article PMC9788395, “Cell-Penetrating Peptide–Peptide Nucleic Acid Conjugates as a Tool for Protein Functional Elucidation in the Native Bacterium” (Molecules, 2022).
Non-standard residues stand in square brackets, D forms with d. Residues, ends and D or L forms follow the SMILES beside them. Dab = NCC[C@H](N)C(=O)O

System: Paenibacillus sp. YYML68
Type: cell-based
Conditions: not told
Description: Figure S5. Evaluation of (DabFF)3K-FAM permeation into Paenibacillus sp. YYML68. (DabFF)3Dab- […]
FAM permeation was performed at 2 µM concentration in PBS at room temperature (23℃) for 1 h.
Untreated […] strain samples were used as a negative control (NC). Green fluorescence images […]
were captured using the blue wide-excitation mirror unit (U-FBWA; Olympus). Cell integrity was […]
confirmed by bright field (BF) images. Images of (DabFF) 3Dab-FAM permeated cells and the negative […]
controls were captured at similar exposure times to allow for comparison. Scale bar is 5 µm.
Enzymes for Biocatalysis: Sources, Biocatalytic Characteristic and Bioprocesses of Marine […]
Enzymes, Trincone, A., Ed. Woodhead Publishing Limited: Cambridge, 2013; pp 4 29-464.
electrospray ionization mass spectrometry for the characterization of kappa - and iota- […]
carrageenans. Application to the hybrid iota -/nu-carrageenans. Analytical chemistry 2005, 77, […]
Cerezo, A. S.; Erra-Balsells, R.; Matulewicz, M. C., Matrix -assisted laser desorption/ionization time-of-flight (MALDI-TOF) mass spectrometry analysis of oligosaccharides and […]
oligosaccharide alditols obtained by hydrolysis of agaroses and carrageenans, two important […]
types of red seaweed polysaccharides. Carbohydrate research 2010, 345, (2), 275-83.
(1 picture or pasted object on this page, not shown here)

## NCC[C@H](NC(=O)[C@H](Cc1ccccc1)NC(=O)[C@H](Cc1ccccc1)NC(=O)[C@H](CCN)NC(=O)[C@H](Cc1ccccc1)NC(=O)[C@H](Cc1ccccc1)NC(=O)[C@H](CCN)NC(=O)[C@H](Cc1ccccc1)NC(=O)[C@H](Cc1ccccc1)NC(=O)[C@@H](N)CCN)C(=O)O [(DabFF)3Dab] (H-[Dab]FF[Dab]FF[Dab]FF[Dab]-OH)
  Permeation of the membrane of Paenibacillus sp. strain YYML68: could efficiently and easily permeate the membrane
